Assay results reported in paper PMC9775177, “NLRP3-Inflammasome Inhibition with IZD334 Does Not Reduce Cardiac Damage in a Pig Model of Myocardial Infarction” (Biomedicines, 2022).
pIC50: −log10 of the molar value. Values joined by “and” are separate entries in the source; they are usually repeats but may differ in a detail not shown here. Equal values may be shown once.

Tests used:
NLRP3-inflammasome = experiment: In vitro stimulation of porcine whole blood with LPS and ATP, IL-1β release; assay type: cell-based
Procedure: To confirm the ability of IZD334 to effectively attenuate porcine NLRP3-inflammasome signaling, we used a previously standardized study protocol. In short, porcine peripheral blood mononuclear cells (PBMCs) were isolated from healthy porcine animals. Whole blood samples and isolated PBMCs were stimulated with lipopolysaccharide (LPS) (1 µg/mL, L4516, Sigma-Aldrich, St. Louis, MO, USA) and increasing concentrations of IZD334. After three h of incubation, 5 mM adenosine triphosphate (ATP) (A1852, Sigma-Aldrich, St. Louis, MO, USA) was added for 1 h to induce inflammasome activation. IL-1β release was measured in the supernatant with a Luminex Immunoasssay specific for porcine IL-1β (EPX01A-66048-901, ProcartaTM Simplex, eBioscience, ThermoFisher, San Diego, CA, USA).
In short, porcine peripheral blood mononuclear cells (PBMCs) were isolated from healthy porcine animals using Ficoll density-gradient centrifugation. Whole blood samples and isolated PBMCs were stimulated with lipopolysaccharide (LPS) (1 µg/mL, L4516, Sigma-Aldrich, St. Louis, MO, USA) and increasing concentrations of IZD334 (top concentration of 10 µM with an 8-point half-log dilution). After three h of incubation, 5 mM adenosine triphosphate (ATP) (A1852, Sigma-Aldrich, St. Louis, MO, USA) was added for 1 h to induce inflammasome activation. IL-1β release was measured in the supernatant with a Luminex Immunoasssay specific for porcine IL-1β (ProcartaTM Simplex, eBioscience, San Diego, CA, USA).

[1] = Pharmacokinetics study in healthy pigs; assay type: in vivo
Procedure: Healthy female pigs (n = 3) were given intravenous (IV) treatment with IZD334 (3 mg/kg) via a 30 min infusion, and blood was collected at multiple timepoints and analyzed to determine pharmacokinetics. After a wash-out period of 3 days, the pigs received an oral dose (10 mg/kg), and plasma was again collected and analyzed.
(§1) In vivo IZD334 concentrations were measured in plasma samples using mass-spectrometry. IZD334 content was quantified using positive ionization mode and multiple reaction monitoring on a Sciex API 5500 Mass spectrometer (MRM transition: 392.0 > 176.1).
At multiple time points (0.033, 0.083, 0.17, 0.25, 0.50, 1.0, 2.0, 3.0, 4.0, 6.0, 8.0, 12.0, 24.0 h) after dosing, plasma was collected by whole-blood centrifugation at 1850× g, and samples were immediately stored to determine pharmacokinetics. After a wash-out period of 3 days, the pigs received an oral dose (10 mg/kg), and plasma was collected again at multiple time points (0.25, 0.50, 0.75, 1.0, 2.0, 3.0, 4.0, 6.0, 8.0, 12.0, 24.0 h) for pharmacokinetic purposes. Samples were sent to Sygnature Discovery (Nottingham, United Kingdom) to determine circulating levels of IZD334.
The volume of distribution at steady state (Vdss) is defined as the total concentration of IZD334 in the entire body divided by IZD334 plasma concentration. Drug clearance (Cl) was calculated by dividing the total administered dose with the area under the curve. Maximal concentration (Cmax) was obtained by calculating the mean of the highest concentrations of the separate pigs. Bioavailability (F%) was calculated using the following equation: (100 ∗ ((area under the curve oral dose × IV dose)/(area under the curve IV dose × oral dose))).

[2] = test system: pig model of myocardial infarction; experiment: In vivo MI study: cardiac volumes and function by cardiac magnetic resonance; design: species or system pigs; conditions: CMR, 10 mg/kg IV loading dose, 7 days after MI
Procedure: (§2) Oral treatment was continued for six days. […] Animals were sacrificed by exsanguination under anesthesia.
Animals were placed on the CMR table in a supine position, under continuous sedation as described above. Steady-state free precession (SSFP) short axis images from the left ventricle (LV) base through the LV apex were used for the quantification of LV volumes, ejection fraction (EF), and mass. Imaging was performed using a respiratory-corrected, cardiac-gated SSFP in sequence. CMR images were anonymized and analyzed offline using MedisSuite (Medis Medical Imaging Systems, version 3.1, Leiden, The Netherlands).

[3] = IZD334 plasma concentrations in pigs subjected to MI; assay type: in vivo
Procedure: as §2, §1

[4] = test system: pig model of myocardial infarction; experiment: In vivo MI study: infarct size by Evans Blue TTC double staining; conditions: 10 mg/kg IV loading dose, 7 days after MI
[5] = healthy pigs n = 3, PO 10 mg/kg
[6] = then 1 mg/kg oral once daily, n = 6
[7] = then 3 mg/kg oral once daily, n = 7
[8] = then 10 mg/kg oral once daily, n = 7
[9] = then 3 mg/kg oral once daily, n = 6

## CCN1CCC(S(=O)(=O)[N-]C(=O)Nc2c3c(cc4c2CCC4)CCC3)CC1.[K+] [IZD334]
NLRP3-inflammasome; porcine whole blood assay
  performance in whole blood assay compared with MCC950: performs as well as MCC950
NLRP3-inflammasome; porcine whole blood, LPS 1 µg/mL 3 h, then 5 mM ATP 1 h, read-out: half maximal inhibitory concentration (IC50), IL-1β release
  pIC50: 6.46
NLRP3-inflammasome; porcine whole blood, LPS + ATP, basis of log not printed (fits nM)
  LogIC50, whole blood stimulation: 2.545
[1]; healthy pigs n = 3, IV 3 mg/kg
  AUC0-inf (ng.h/mL): 27,786 ng.h/mL
  Cl: 1.8 mL/min/kg
  MRT0-inf: 5.3 h
  Vdss: 0.58 L/kg
[1]; healthy pigs n = 3, IV 3 mg/kg, 30 min infusion
  T1/2: 3.9 h
[1]; [5]
  AUC0-inf (ng.h/mL): 86,337 ng.h/mL
  Cmax (ng/mL): 12,116 ng/mL
[1]; healthy pigs n = 3, PO 10 mg/kg versus IV 3 mg/kg
  F% (bioavailability): 93%
[1]; healthy pigs, IV 3 mg/kg, based on extrapolation of in vitro results
  time that plasma concentrations sufficient for effective inhibition were maintained: 24 h
[1]; healthy pigs, PO 10 mg/kg
  circulating levels 24 h after compound administration: adequate circulating levels
[2]; [6]
  EDV: 150 ± 26 mL and 149.6 ± 26.2 mL
  EF%: 49.9 ± 6.1%
  ESV: 72 ± 19 mL and 71.5 ± 18.7 mL
[2]; [7]
  EDV: 151 ± 8 mL and 151.4 ± 7.6 mL
  EF%: 42.7 ± 3.8%
  ESV: 87 ± 8 mL and 86.8 ± 8.2 mL
[2]; [8]
  EDV: 144 ± 22 mL and 144.0 ± 22.0 mL
  EF%: 44.9 ± 6.4%
  ESV: 80 ± 19 mL and 80.0 ± 18.9 mL
[3]; 1 mg/kg group (10 mg/kg IV loading dose), Reperfusion + 4 h, n = 6
  Concentration (ng/mL) Mean: 13,192 ng/mL
[3]; 1 mg/kg oral once daily group, Day 1, n = 6
  Concentration (ng/mL) Mean: 1434 ng/mL
[3]; 1 mg/kg oral once daily group, Day 2, n = 6
  Concentration (ng/mL) Mean: 795 ng/mL
[3]; 1 mg/kg oral once daily group, Day 3, n = 6
  Concentration (ng/mL) Mean: 555 ng/mL
[3]; 1 mg/kg oral once daily group, Day 7, n = 6
  Concentration (ng/mL) Mean: 44 ng/mL
[3]; 3 mg/kg group (10 mg/kg IV loading dose), Reperfusion + 4 h, n = 7
  Concentration (ng/mL) Mean: 11,992 ng/mL
[3]; 3 mg/kg oral once daily group, Day 1, n = 7
  Concentration (ng/mL) Mean: 2090 ng/mL
[3]; 3 mg/kg oral once daily group, Day 2, n = 7
  Concentration (ng/mL) Mean: 1501 ng/mL
[3]; 3 mg/kg oral once daily group, Day 3, n = 7
  Concentration (ng/mL) Mean: 1190 ng/mL
[3]; 3 mg/kg oral once daily group, Day 7, n = 7
  Concentration (ng/mL) Mean: 120 ng/mL
[3]; 10 mg/kg group (10 mg/kg IV loading dose), Reperfusion + 4, n = 7
  Concentration (ng/mL) Mean: 12,312 ng/mL
[3]; 10 mg/kg oral once daily group, Day 1, n = 7
  Concentration (ng/mL) Mean: 4522 ng/mL
[3]; 10 mg/kg oral once daily group, Day 2, n = 7
  Concentration (ng/mL) Mean: 4213 ng/mL
[3]; 10 mg/kg oral once daily group, Day 3, n = 7
  Concentration (ng/mL) Mean: 3887 ng/mL
[3]; 10 mg/kg oral once daily group, Day 7, n = 7
  Concentration (ng/mL) Mean: 233 ng/mL
[4]; [6]
  AAR/LV ± SD: 23.5 ± 3.2%
  IS/AAR ± SD: 75.5 ± 7.3% and 75.5%
  IS/LV ± SD: 17.7 ± 6.3%
[4]; [9]
  AAR/LV ± SD: 26.0 ± 1.9%
  IS/AAR ± SD: 80.3 ± 3.9%
[4]; [7]
  IS/LV ± SD: 20.5 ± 2.2%
[4]; [8]
  AAR/LV ± SD: 26.4 ± 6.6%
  IS/AAR ± SD: 78.2 ± 8.0% and 78.2%
  IS/LV ± SD: 19.3 ± 2.9%
